Data set [1] in a line: LD50 acute toxicity, ddy mice, single abdominal injection. The conditions noted are these: mouse, in vivo, ip, 5 ddy mice, 14 days observation, Behrens-Koerber's method. The text has this:
(§1) As used herein, the term "LD50 " denotes the acute toxicity. The term "ED50 " denotes the administered amount needed for reducing the volume of Sarcoma 180 solid tumours in animals to 50% of the corresponding tumour volume in control (untreated) animals. The term "WBC4000 " denotes the minimum dose of the drug needed to reduce the number of peripheral leucocytes to 4000/mm^3. A greater TI value results in a broader tolerance to the drug, which is advantageous for higher anti-tumour activity and decreased toxicity. The term "T" used herein denotes the average survival days of the test animals administered with the test compound. The term "C" denotes the average survival days of the control (untreated) animals. The term "OPD" denotes the dose of the drug resulting in the highest survival ratio. The term "ILS30 " denotes a 30% increase of life-span.
LD50, ED50 and WBC4000 were respectively determined as follows:
Each animal of the test group, consisting of 5 ddy mice, was administered once with a test compound by abdominal injection. […] To determine the LD50 value, Behrens-Koerber's method was applied.

The test system of another data set is Sarcoma 180 solid tumour. The data set is described as follows: ED50 against Sarcoma 180 solid tumour implanted in mice. Format: in vivo, male mouse (ddy strain). The following applies: for (CI)c: (CI of test compound)/(CI of mitomycin C), CI = LD50/ED50; for ED50: Mus musculus, Sarcoma-180, iv, 168 h, i.v. (tail vein) 24 h after implantation, tumour volume at 7 days, dose for T/C of 0.5.
Source text: With regard to the so-called chemotherapeutic index viz. the CI value against sarcoma 180 solid tumour, expressed by the formula: […]
as §1
the term (CI)c denotes (CI of the test compound)/(CI of mitomycin C), and
5×10^6 sarcoma 180 solid tumor cells were abdominally implanted into ddy mice. 7 days after this, ascites cells were sampled. The cells were washed once with a sterilized physiological saline and were used to prepare a cell suspension containing 5×10^7 cells per ml of a sterilized physiological saline. On each occasion, 0.1 ml of the cell suspension was subcutaneously implanted under the skin of the right armpit of a male mouse (ddy strain; body weight 20±2 g). The test compound which was dissolved in a physiological saline with or without addition of Tween 80 was injected into the tail vein of each animal of a group consisting of 5 mice at a dose of 0.1-0.2 ml 24 hours after the implantation of the tumor cells.
The anti-tumor activity was determined in the following manner:
7 days after the implantation, the major axis (a) and the minor axis (b) of the tumour were measured to calculate a value of (a×b^2)/2 which corresponds to the volume of the tumour. The antitumour activity was expressed by the ratio of the volume of the tumour (T) of the group of animals administered with the test compound to the corresponding volume of tumours (C) of the untreated animals.
On graph paper, T/C was plotted on the ordinate using an arithmetic scale and the administered amount of test compound was plotted on the abscissa using a logarithmic scale. The relationship between the dose and T/C was shown by a straight line determined by the method of least squares, from which ED50 viz. a dose corresponding to T/C of 0.5 was obtained.

The subject of data set [2] is lymphocytic Leukemia P-388. Description: Anti-tumour activity against lymphocytic Leukemia P-388 in mice. Format: in vivo, mouse, female of CDF strain. The following applies: for (ILSmax)c: (ILSmax of test compound)/(ILSmax of mitomycin C), ILS=(T-C)/C×100; for (TI)c: (TI of test compound)/(TI of mitomycin C), TI = OPD/dose which results in ILS30; for ED (optimal dose, highest survival) / ED (30% increase of life-span): Mus musculus, P388, ip, i.p. 24 h after implantation; for ED (optimal dose, highest survival): dose resulting in the highest survival ratio, 30 days, read-out: OPD; for ED (30% increase of life-span): read-out: Dose needed to give ILS30.
Source text: Also, their therapeutic indexes, expressed by the formula:
TI=(OPD)/(dose which results in ILS30),
against lymphocytic Leukemia P-388 and the maximum increased life spans (ILSmax), defined by the formula: […]
as §1
The experiment was carried out in the following manner. 1×10^6 lymphocytic Leukemia P-388 tumour cells were abdominally implanted into each mouse of a group consisting of 5 mice (body weight about 22 g; female of CDF strain). 24 hours after implantation, a physiological saline solution (0.2 ml) containing the test compound with or without addition of Tween 80 was abdominally given to the test animal.
Table 7 indicates anti-tumour activities of selected Compounds (I) against lyphocytic Leukemia P-388.

As for `CO[C@@]12[C@H](COC(N)=O)C3=C(C(=O)C(C)=C(NCCSC(=O)NC4CCN(Cc5ccccc5)CC4)C3=O)N1C[C@@H]1N[C@@H]12` [Compound 12, 7-N--[2-(1-benzylpiperidine-4-yl)aminocarbonylthioethyl]mitomycin C], the LD50 (commonly the dose expected to kill half of the subjects tested) at 336 h in data set [1] came to 37.5 mg/kg. In addition, in the data set on Sarcoma 180 solid tumour, the “(CI)c” value was determined as 1.61 and it took a dose of 8.1 mg/kg to reach the 50% effect level (ED50). For the same molecule, in data set [2], the “(ILSmax)c” value is reported as greater than 1.47; the “(TI)c” value is recorded as greater than 1.10; the ED (optimal dose, highest survival) amounted to 12.5 mg/kg; the ED (30% increase of life-span) was less than 0.78 mg/kg.

In data set [1], `COC(=O)[C@@H]1CCCN1C(=O)SCCNC1=C(C)C(=O)C2=C(C1=O)[C@@H](COC(N)=O)[C@@]1(OC)[C@H]3N[C@H]3CN21` [Compound 6, 7-N--[2-((S)--2-methoxycarbonylpyrrolidino)carbonylthioethyl]mitomycin C] came in with an LD50 at 336 h greater than 50 mg/kg. In addition, in the data set on Sarcoma 180 solid tumour, the “(CI)c” value is 1.77 and the ED50 (in general, the dose at which the effect has come halfway, by size or by number of responders) stood at 10.1 mg/kg. Moreover, in data set [2], the “(ILSmax)c” value is recorded as greater than 1.82; the “(TI)c” value is on record as 9.09; the ED (optimal dose, highest survival) was 100 mg/kg; the ED (30% increase of life-span) was 1.1 mg/kg.

In data set [1], `CO[C@@]12[C@H](COC(N)=O)C3=C(C(=O)C(C)=C(NCCSC(=O)NC(C)C)C3=O)N1C[C@@H]1N[C@@H]12` [Compound 7, 7-N--(2-isopropylaminocarbonylthioethyl)mitomycin C] had an LD50 at 336 h of 45 mg/kg. For the same molecule, in the data set on Sarcoma 180 solid tumour, the “(CI)c” value is on record as 2.29 and the ED50 was found to be 7 mg/kg. Moreover, in data set [2], the “(ILSmax)c” value is greater than 1.76; the “(TI)c” value is given as 2.48; the ED (optimal dose, highest survival) worked out at 12.5 mg/kg; the ED (30% increase of life-span) came to 0.77 mg/kg.

With `CNC(=O)SCCNC1=C(C)C(=O)C2=C(C1=O)[C@@H](COC(N)=O)[C@@]1(OC)[C@H]3N[C@H]3CN21` [Compound 1, 7-N--(2-methylaminocarbonylthioethyl)mitomycin C], the LD50 at 336 h in data set [1] was greater than 100 mg/kg. In the data set on Sarcoma 180 solid tumour, the “(CI)c” value was greater than 1.39 and it took a dose of 25.8 mg/kg to reach the 50% effect level (ED50). Also, in data set [2], the “(ILSmax)c” value was determined as 1.44; the “(TI)c” value worked out at 1.33; the ED (optimal dose, highest survival) stood at 25 mg/kg; the ED (30% increase of life-span) turned out to be 0.78 mg/kg.

As for `CCN(CC)C(=O)SCCNC1=C(C)C(=O)C2=C(C1=O)[C@@H](COC(N)=O)[C@@]1(OC)[C@H]3N[C@H]3CN21` [Compound 4, 7-N--(2-diethylaminocarbonylthioethyl)mitomycin C], in data set [1], the LD50 at 336 h stood at 45 mg/kg. For the same molecule, in the data set with Sarcoma 180 solid tumour, the “(CI)c” value turned out to be 1.64 and the ED50 came to 13.3 mg/kg. Further, in data set [2], the “(ILSmax)c” value is given as greater than 1.21; the “(TI)c” value is recorded as 1.18; the ED (optimal dose, highest survival) came out at 25 mg/kg; the ED (30% increase of life-span) came to 2.02 mg/kg.

With `CO[C@@]12[C@H](COC(N)=O)C3=C(C(=O)C(C)=C(NCCSC(=O)NC(COCc4ccccc4)C(C)C)C3=O)N1C[C@@H]1N[C@@H]12` (stereo partly shown) [Compound 13], the LD50 at 336 h in data set [1] stood at 26.3 mg/kg. Besides, in the data set with Sarcoma 180 solid tumour, the “(CI)c” value was 2.01 and it took a dose of 4.5 mg/kg to reach the 50% effect level (ED50). Also, in data set [2], the “(ILSmax)c” value was greater than 2.57; the “(TI)c” value is on record as 1.96; the ED (optimal dose, highest survival) amounted to 7.5 mg/kg; the ED (30% increase of life-span) is 0.33 mg/kg.

`CO[C@@]12[C@H](COC(N)=O)C3=C(C(=O)C(C)=C(NCCSC(=O)NCc4ccccc4)C3=O)N1C[C@@H]1N[C@@H]12` [Compound 22, 7-N--(2-benzylaminocarbonylthioethyl)mitomycin C]: the LD50 at 336 h in data set [1] was determined as 37.5 mg/kg. In addition, in the data set with Sarcoma 180 solid tumour, the “(CI)c” value is on record as 1.44 and the ED50 was 10.2 mg/kg. In data set [2], the “(ILSmax)c” value stood at 1.43; the “(TI)c” value is on record as 3.36; the ED (optimal dose, highest survival) worked out at 25 mg/kg; the ED (30% increase of life-span) worked out at 0.62 mg/kg.

On to `CO[C@@]12[C@H](COC(N)=O)C3=C(C(=O)C(C)=C(NCCSC(=O)NC4CCCCC4)C3=O)N1C[C@@H]1N[C@@H]12` [Compound 29, 7-N--(2-cyclohexylaminocarbonylthioethyl)mitomycin C], for which the LD50 at 336 h in data set [1] is 43.8 mg/kg. In addition, in the data set on Sarcoma 180 solid tumour, the “(CI)c” value is 1.43 and the median effective dose (ED50) came out at 12 mg/kg. Further, in data set [2], the “(ILSmax)c” value is on record as 1.69; the “(TI)c” value worked out at 2.45; the ED (optimal dose, highest survival) turned out to be 25 mg/kg; the ED (30% increase of life-span) stood at 0.85 mg/kg.

`CCNC(=O)SCCNC1=C(C)C(=O)C2=C(C1=O)[C@@H](COC(N)=O)[C@@]1(OC)[C@H]3N[C@H]3CN21` [Compound 23, 7-N--(2-ethylaminocarbonylthioethyl)mitomycin C] showed an LD50 at 336 h in data set [1] of 52.5 mg/kg. For the same molecule, in the data set on Sarcoma 180 solid tumour, the “(CI)c” value is given as 2.48 and the median effective dose (ED50) amounted to 8.3 mg/kg. In data set [2], the “(ILSmax)c” value was determined as 1.16; the “(TI)c” value is listed as 3.28~1.64; the ED (optimal dose, highest survival) is 25 mg/kg; the ED (30% increase of life-span) amounted to 0.33 mg/kg.

In turn, `CO[C@@]12[C@H](COC(N)=O)C3=C(C(=O)C(C)=C(NCCSC(=O)N4CCC[C@H]4C(=O)NCc4ccccc4)C3=O)N1C[C@@H]1N[C@@H]12` [Compound 14, 7-N--[2-((S)--2-benzylaminocarbonylpyrrolidino)-carbonylthioethyl]mitomycin C] had an LD50 at 336 h in data set [1] of 75 mg/kg. In the data set on Sarcoma 180 solid tumour, the “(CI)c” value amounted to 2.23 and the ED50 worked out at 13.6 mg/kg. In data set [2], the “(ILSmax)c” value is on record as 1.44; the “(TI)c” value was found to be 0.93; the ED (optimal dose, highest survival) came out at 50 mg/kg; the ED (30% increase of life-span) was 3.46 mg/kg.

For the molecule `CCC(CC)NC(=O)SCCNC1=C(C)C(=O)C2=C(C1=O)[C@@H](COC(N)=O)[C@@]1(OC)[C@H]3N[C@H]3CN21` [Compound 11, 7-N--[2-(1-ethylpropyl)aminocarbonylthioethyl]mitomycin C], the LD50 at 336 h in data set [1] amounted to 45 mg/kg. In addition, in the data set with Sarcoma 180 solid tumour, the “(CI)c” value was determined as 1.40 and it took a dose of 11.1 mg/kg to reach the 50% effect level (ED50). Also, in data set [2], the “(ILSmax)c” value is given as greater than 1.47; the “(TI)c” value came to 1.86; the ED (optimal dose, highest survival) was found to be 25 mg/kg; the ED (30% increase of life-span) was 1.04 mg/kg.

`CCCNC(=O)SCCNC1=C(C)C(=O)C2=C(C1=O)[C@@H](COC(N)=O)[C@@]1(OC)[C@H]3N[C@H]3CN21` [Compound 27, 7-N--(2-n-propylaminocarbonylthioethyl)mitomycin C] returned an LD50 at 336 h in data set [1] of 37.5 mg/kg. Besides, in the data set on Sarcoma 180 solid tumour, the “(CI)c” value turned out to be 1.33 and the 50% effective dose (ED50) amounted to 11.1 mg/kg. For the same molecule, in data set [2], the “(ILSmax)c” value is on record as 1.84; the “(TI)c” value amounted to 3.11; the ED (optimal dose, highest survival) is 25 mg/kg; the ED (30% increase of life-span) came out at 0.67 mg/kg.

On to `COC(=O)[C@@H](NC(=O)SCCNC1=C(C)C(=O)C2=C(C1=O)[C@@H](COC(N)=O)[C@@]1(OC)[C@H]3N[C@H]3CN21)C(C)C` [Compound 9, 7-N--[2-((S)--1-methoxycarbonyl-2-methylpropyl)-aminocarbonylthioethyl]mitomycin C], for which the LD50 at 336 h in data set [1] was 37.5 mg/kg. For the same molecule, in the data set with Sarcoma 180 solid tumour, the “(CI)c” value is listed as 0.81 and it took a dose of 15.9 mg/kg to reach the 50% effect level (ED50). In data set [2], the “(ILSmax)c” value is on record as greater than 1.54; the “(TI)c” value stood at 0.92; the ED (optimal dose, highest survival) amounted to 12.5 mg/kg; the ED (30% increase of life-span) amounted to 0.84 mg/kg.

Source of the values: patent publication US4863935A, “Mitomycin compounds having useful anti-tumor activity” (priority 1986, dated 1989).
